Results reported in patent US20240150368A1, “ULK INHIBITORS AND METHODS OF USE THEREOF” (Deciphera Pharmaceuticals, LLC, priority 2022, published 2024).
pIC50: −log10 of the molar value.

Experiments:
[1] = tested on: ULK kinase substrate ATG13 (pS318-ATG13) in A549 (KRAS mutant) cells; experiment: pATG13 levels of mutant KRas A549 cells after treatment with ULK inhibitors in combination with trametinib (ELISA); format: cell-based, human
How it was run: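 A549 cells grown overnight were treated with a test-compound dose response plus trametinib at 250 nM final (or DMSO) overnight at 37° C. Lysates were assayed by total-ATG13 capture and biotinylated pS318-ATG13 detection ELISA (450 nm minus 540 nm background); % phosphorylation versus controls gave IC50 values.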

[2] = tested on: ULK kinase substrate ATG13 (pS318-ATG13) in MiaPaCa-2 cells; experiment: pATG13 levels of mutant KRas MiaPaCa-2 cells after treatment with ULK inhibitors in combination with trametinib (ELISA); format: cell-based, human
How it was run: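 MiaPaCa-2 cells grown overnight, then dosed with test compound titration plus trametinib (final 250 nM) or DMSO, overnight at 37° C. Lysate pS318-ATG13 measured by sandwich ELISA (total ATG13 capture, biotinylated pS318 detection, HRP/TMB, A450 minus A540); % phosphorylation vs control wells fitted to IC50.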

CC/C(Nc1cnn(CCN(C)C)c1)=C1/C(=O)Nc2ccc(C(=O)NCC(F)(F)F)cc21 [Example 103]
pIC50 [1]: 6.22 to 6.52
pIC50 [2]: ≥ 7.00

CC/C(Nc1cnn([C@H]2CCOC2)c1)=C1/C(=O)Nc2ccc(C(=O)NCC(F)(F)F)cc21 [Example 104]
pIC50 [1]: ≥ 7.00
pIC50 [2]: ≥ 7.00

CC/C(Nc1cnn([C@@H]2CCOC2)c1)=C1/C(=O)Nc2ccc(C(=O)NCC(F)(F)F)cc21 [Example 105]
pIC50 [1]: ≥ 7.00
pIC50 [2]: ≥ 7.00

CC/C(Nc1cnn(C2CCOCC2)c1)=C1/C(=O)Nc2ccc(C(=O)NCC(F)(F)F)cc21 [Example 106]
pIC50 [1]: 6.52 to 7.00
pIC50 [2]: ≥ 7.00

CC/C(Nc1cnn(CC)c1)=C1/C(=O)Nc2ccc(C(=O)NCC(F)(F)F)cc21 [Example 107]
pIC50 [1]: ≥ 7.00
pIC50 [2]: ≥ 7.00

CC/C(Nc1cn[nH]c1)=C1/C(=O)Nc2ccc(C(=O)NCC(F)(F)F)cc21 [Example 108]
pIC50 [1]: < 6.22
pIC50 [2]: 6.52 to 7.00

CC/C(Nc1cnn(C(C)C)c1)=C1/C(=O)Nc2ccc(C(=O)NCC(F)F)cc21 [Example 112]
pIC50 [1]: ≥ 7.00
pIC50 [2]: ≥ 7.00

CC/C(Nc1cnn(C(F)(F)F)c1)=C1/C(=O)Nc2ccc(C(=O)NCC(F)(F)F)cc21 [Example 113]
pIC50 [1]: 6.52 to 7.00
pIC50 [2]: ≥ 7.00

CC/C(Nc1cnn(C(F)F)c1)=C1/C(=O)Nc2ccc(C(=O)NCC(F)(F)F)cc21 [Example 114]
pIC50 [1]: 6.52 to 7.00
pIC50 [2]: ≥ 7.00

CC/C(Nc1cnn(C2CC2)c1)=C1/C(=O)Nc2ccc(C(=O)NCC(F)(F)F)cc21 [Example 116]
pIC50 [1]: ≥ 7.00
pIC50 [2]: ≥ 7.00

CC/C(Nc1cnn(C2CCC2)c1)=C1/C(=O)Nc2ccc(C(=O)NCC(F)(F)F)cc21 [Example 117]
pIC50 [1]: ≥ 7.00
pIC50 [2]: ≥ 7.00

CC/C(Nc1cnn(C2COC2)c1)=C1/C(=O)Nc2ccc(C(=O)NCC(F)(F)F)cc21 [Example 118]
pIC50 [1]: 6.22 to 6.52
pIC50 [2]: ≥ 7.00

CC/C(Nc1cnn(C(C)C)c1)=C1/C(=O)Nc2ccc(C(=O)N[C@H](C)C(F)(F)F)cc21 [Example 119]
pIC50 [1]: ≥ 7.00
pIC50 [2]: ≥ 7.00

CC/C(Nc1cn(C(C)C)nn1)=C1/C(=O)Nc2ccc(C(=O)NCC(F)(F)F)cc21 [Example 122]
pIC50 [1]: < 6.22
pIC50 [2]: 6.52 to 7.00

CC/C(Nc1cnn(C2CCN(C(C)C)CC2)c1)=C1/C(=O)Nc2ccc(C(C)=O)cc21 [Example 123]
pIC50 [1]: 6.52 to 7.00
pIC50 [2]: ≥ 7.00

CC/C(Nc1cccnc1)=C1/C(=O)Nc2ccc(C(=O)NCC(F)(F)F)cc21 [Example 124]
pIC50 [1]: < 6.22
pIC50 [2]: 6.22 to 6.52

CC/C(Nc1cnn(C(C)C)c1)=C1/C(=O)Nc2ccc(C(=O)N(C)CC(F)(F)F)cc21 [Example 125]
pIC50 [1]: 6.22 to 6.52
pIC50 [2]: 6.52 to 7.00

CC/C(Nc1cnn(C(C)C)c1)=C1/C(=O)Nc2ccc(C(=O)NCCOC)cc21 [Example 126]
pIC50 [1]: 6.22 to 6.52
pIC50 [2]: 6.52 to 7.00

CC/C(Nc1cnn(C(C)C)c1)=C1/C(=O)Nc2ccc(C(=O)NCCC#N)cc21 [Example 127]
pIC50 [1]: < 6.22
pIC50 [2]: 6.52 to 7.00

CC/C(Nc1cnn(C(C)C)c1)=C1/C(=O)Nc2ccc(C(=O)NC[C@@H](C)OC)cc21 [Example 128]
pIC50 [1]: 6.22 to 6.52
pIC50 [2]: 6.22 to 6.52

CC/C(Nc1cnn(C(C)C)c1)=C1/C(=O)Nc2ccc(C(=O)NCC(C)C)cc21 [Example 130]
pIC50 [1]: ≥ 7.00
pIC50 [2]: ≥ 7.00

CC/C(Nc1cnn(C(C)C)c1)=C1/C(=O)Nc2ccc(C(=O)NCC3CC(F)(F)C3)cc21 [Example 134]
pIC50 [1]: ≥ 7.00
pIC50 [2]: ≥ 7.00

CC/C(Nc1cnn(C(C)C)c1)=C1/C(=O)Nc2ccc(C(=O)NCC(C)(C)F)cc21 [Example 135]
pIC50 [1]: ≥ 7.00
pIC50 [2]: ≥ 7.00

CC/C(Nc1cnn(C(C)C)c1)=C1/C(=O)Nc2ccc(C(=O)NCCOC(F)(F)F)cc21 [Example 136]
pIC50 [1]: 6.52 to 7.00
pIC50 [2]: ≥ 7.00

CC/C(Nc1cnn(C(C)C)c1)=C1/C(=O)Nc2ccc(C(=O)NCC3CCC(C)(C)O3)cc21 (centres unmarked) [Example 137]
pIC50 [1]: 6.22 to 6.52
pIC50 [2]: 6.52 to 7.00

CC/C(Nc1cnn(C(C)C)c1)=C1/C(=O)Nc2ccc(C(=O)NCC3CCC4(CCC4)O3)cc21 (centres unmarked) [Example 138]
pIC50 [1]: < 6.22
pIC50 [2]: 6.22 to 6.52

CC/C(Nc1cnn(C(C)C)c1)=C1/C(=O)Nc2ccc(C(=O)NCC3(C(F)(F)F)CC3)cc21 [Example 140]
pIC50 [1]: ≥ 7.00
pIC50 [2]: ≥ 7.00

CC/C(Nc1ccc2nn(C(C)C)cc2c1)=C1/C(=O)Nc2ccc(C(=O)NCC(F)(F)F)cc21 [Example 142]
pIC50 [1]: 6.22 to 6.52
pIC50 [2]: 6.52 to 7.00

CC/C(Nc1cnn(C2CC(F)(F)C2)c1)=C1/C(=O)Nc2ccc(C(=O)NCC(F)(F)F)cc21 [Example 144]
pIC50 [1]: ≥ 7.00
pIC50 [2]: ≥ 7.00

CC/C(Nc1ccccn1)=C1/C(=O)Nc2ccc(C(=O)NCC(F)(F)F)cc21 [Example 145]
pIC50 [1]: 6.52 to 7.00
pIC50 [2]: 6.52 to 7.00

CC/C(Nc1cnn(C(F)F)c1)=C1/C(=O)Nc2ccc(C(=O)NCC(C)C)cc21 [Example 147]
pIC50 [1]: 6.52 to 7.00
pIC50 [2]: ≥ 7.00

CC/C(Nc1cnn(C(C)C)c1)=C1/C(=O)Nc2ccc(C(=O)NCC(C)(C)OC)cc21 [Example 148]
pIC50 [1]: 6.52 to 7.00
pIC50 [2]: 6.52 to 7.00

CC/C(Nc1cc(C(F)(F)F)ccn1)=C1/C(=O)Nc2ccc(C(=O)NCC(F)(F)F)cc21 [Example 149]
pIC50 [1]: 6.52 to 7.00
pIC50 [2]: 6.52 to 7.00

CC/C(Nc1cnn(C(C)C)c1)=C1/C(=O)Nc2ccc(C(=O)NCC3(F)CC3)cc21 [Example 152]
pIC50 [1]: ≥ 7.00
pIC50 [2]: ≥ 7.00

CC/C(Nc1cnn(CC)c1)=C1/C(=O)Nc2ccc(C(=O)NCC3(F)CC3)cc21 [Example 153]
pIC50 [1]: ≥ 7.00
pIC50 [2]: ≥ 7.00

CC/C(Nc1cnn(C)c1)=C1/C(=O)Nc2ccc(C(=O)NCC3(F)CC3)cc21 [Example 154]
pIC50 [1]: ≥ 7.00
pIC50 [2]: ≥ 7.00

CC/C(Nc1cnn(C(C)C)c1)=C1/C(=O)Nc2ccc(C(=O)NCC3(C#N)CC3)cc21 [Example 156]
pIC50 [1]: ≥ 7.00
pIC50 [2]: ≥ 7.00

CC/C(Nc1cnn(CC(C)OC)c1)=C1/C(=O)Nc2ccc(C(=O)NCC(F)(F)F)cc21 (centres unmarked) [Example 157]
pIC50 [1]: 6.52 to 7.00
pIC50 [2]: ≥ 7.00

CC/C(Nc1cnn(CC(C)OC)c1)=C1/C(=O)Nc2ccc(C(=O)NCC(F)(F)F)cc21 (centres unmarked) [Example 158]
pIC50 [1]: 6.52 to 7.00
pIC50 [2]: 6.52 to 7.00

CC/C(Nc1cnn(C(C)CC)c1)=C1/C(=O)Nc2ccc(C(=O)NCC(F)(F)F)cc21 (centres unmarked) [Example 159]
pIC50 [1]: 6.52 to 7.00
pIC50 [2]: ≥ 7.00

CC/C(Nc1cnn(CC(F)(F)F)c1)=C1/C(=O)Nc2ccc(C(=O)NCC(C)(C)F)cc21 [Example 160]
pIC50 [1]: 6.52 to 7.00
pIC50 [2]: ≥ 7.00

CC/C(Nc1cnn(CC(F)F)c1)=C1/C(=O)Nc2ccc(C(=O)NCC(C)(C)F)cc21 [Example 161]
pIC50 [1]: ≥ 7.00
pIC50 [2]: ≥ 7.00

CC/C(Nc1cnn(C(C)C)c1)=C1/C(=O)Nc2ccc(C(=O)NCCC(F)(F)F)cc21 [Example 166]
pIC50 [1]: ≥ 7.00
pIC50 [2]: ≥ 7.00

CC/C(Nc1cnn(C(C)C)c1)=C1/C(=O)Nc2ccc(C(=O)NCC3(C)CCOC3)cc21 (centres unmarked) [Example 168]
pIC50 [1]: 6.22 to 6.52
pIC50 [2]: 6.52 to 7.00

CC/C(Nc1cnn(C(F)(F)F)c1)=C1/C(=O)Nc2ccc(C(=O)NCC(C)C)cc21 [Example 169]
pIC50 [1]: 6.52 to 7.00
pIC50 [2]: 6.52 to 7.00

CC/C(Nc1cnn(C2CCOCC2)c1)=C1/C(=O)Nc2ccc(C(=O)NCC(C)(C)F)cc21 [Example 173]
pIC50 [1]: ≥ 7.00
pIC50 [2]: ≥ 7.00
